The target in this test is human F508del-CFTR (Homo sapiens, UniProt P13569, DEL508-508). The test is described as follows: F508del-CFTR cell surface expression (corrector activity), DiscoveRx ß-galactosidase complementation chemiluminescence assay in recombinant U2OS cell line.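 For all read-outs here: U2OS cells co-expressing ProLink-tagged F508del-CFTR and a membrane-anchored enzyme acceptor, where more surface CFTR restores β-galactosidase activity measured by chemiluminescence.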 Conditions: for pEC50: EC50, F508del-CFTR cell surface expression, U2OS cells, 16h compound incubation, geomean values; for Emax: U2OS, in relation to Emax of corrector lumacaftor (=100%), arithmetic mean values.
human F508del-CFTR, sequence (P13569 with tags, fused parts or gaps DEL508-508): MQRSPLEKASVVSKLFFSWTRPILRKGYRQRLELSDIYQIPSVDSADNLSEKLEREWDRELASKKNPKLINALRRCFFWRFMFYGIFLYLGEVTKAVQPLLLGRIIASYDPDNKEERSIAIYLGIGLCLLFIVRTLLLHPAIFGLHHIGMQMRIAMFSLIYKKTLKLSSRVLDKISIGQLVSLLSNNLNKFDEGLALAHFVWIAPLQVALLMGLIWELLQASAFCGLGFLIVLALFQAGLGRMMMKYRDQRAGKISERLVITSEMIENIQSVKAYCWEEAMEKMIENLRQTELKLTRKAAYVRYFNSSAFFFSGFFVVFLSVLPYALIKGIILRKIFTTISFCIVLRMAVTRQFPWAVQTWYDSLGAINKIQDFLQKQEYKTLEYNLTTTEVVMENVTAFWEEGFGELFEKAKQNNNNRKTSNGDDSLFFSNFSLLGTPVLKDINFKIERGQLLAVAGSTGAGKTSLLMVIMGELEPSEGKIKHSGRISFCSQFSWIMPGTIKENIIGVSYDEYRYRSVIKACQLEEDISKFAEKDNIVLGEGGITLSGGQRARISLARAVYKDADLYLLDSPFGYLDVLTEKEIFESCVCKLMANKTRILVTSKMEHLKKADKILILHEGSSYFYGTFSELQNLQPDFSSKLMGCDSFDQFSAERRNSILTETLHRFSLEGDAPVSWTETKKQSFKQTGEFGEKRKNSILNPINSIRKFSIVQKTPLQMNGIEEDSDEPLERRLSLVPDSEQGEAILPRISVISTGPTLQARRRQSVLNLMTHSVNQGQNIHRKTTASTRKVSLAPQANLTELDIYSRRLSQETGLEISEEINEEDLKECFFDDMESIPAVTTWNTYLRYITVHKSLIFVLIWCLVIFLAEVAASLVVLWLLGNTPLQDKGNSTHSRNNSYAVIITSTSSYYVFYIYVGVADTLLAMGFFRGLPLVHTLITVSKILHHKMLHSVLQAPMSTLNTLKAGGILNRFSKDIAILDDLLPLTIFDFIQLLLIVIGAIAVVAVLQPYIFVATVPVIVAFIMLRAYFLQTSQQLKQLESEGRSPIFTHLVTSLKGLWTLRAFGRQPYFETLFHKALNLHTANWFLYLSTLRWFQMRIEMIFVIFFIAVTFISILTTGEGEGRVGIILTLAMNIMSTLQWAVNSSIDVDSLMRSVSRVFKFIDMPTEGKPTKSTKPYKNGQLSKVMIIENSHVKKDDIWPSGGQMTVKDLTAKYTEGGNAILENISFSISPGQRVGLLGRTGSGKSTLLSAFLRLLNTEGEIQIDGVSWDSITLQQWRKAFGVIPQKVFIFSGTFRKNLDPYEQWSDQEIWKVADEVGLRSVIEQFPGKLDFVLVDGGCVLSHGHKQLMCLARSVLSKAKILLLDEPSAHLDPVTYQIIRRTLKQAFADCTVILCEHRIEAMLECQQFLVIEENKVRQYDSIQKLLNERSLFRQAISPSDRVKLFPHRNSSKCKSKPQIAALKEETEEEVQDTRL

pEC50: −log10 of the molar value.

Protocol: The method measures the effect of over-night compound incubation on F508del-CFTR cell surface expression in a recombinant U2OS cell line (DiscoveRx, #93-0987C3). This cell line is engineered to co-express (i) human F508del-CFTR tagged with a Prolink (PK=short ß-galactosidase fragment) and (ii) the remainder of the ß-galactosidase enzyme (Enzyme Acceptor; EA) localized to the plasma membrane. Incubation with compounds that increase PK-tagged F508del-CFTR at the plasma membrane will lead to complementation of the EA fragment to form a functional ß-galactosidase enzyme which is quantified by a chemiluminescence reaction.
The cells are incubated for 5h in the incubator before the addition of 5 μl/well of compound dilution series (5× working stocks in full medium). […] The cells are co-incubated with the compounds for 16h in the incubator at 37° C., 5% CO2. The next day, the cell plates are incubated for 2h at RT in the dark. […] Concentration-response curves are generated using compound-intrinsic maximal efficacy as upper plateau, and from these CRCs compound-intrinsic EC50 values are determined.
The calculated EC50 values may fluctuate depending on the daily assay performance. […] EC50 values from several measurements are given as geomean values. The calculated Emax values may fluctuate depending on the daily assay performance. […] Emax values from several measurements are given as arithmetic mean values.

In the case of `CC(C)C[C@H]1C(=O)N2CCCC[C@H]2C(=O)N[C@H](Cc2ccccc2)COc2ccc3ncc(F)cc3c2C(=O)N[C@H](C(=O)NCCc2cc(C3CC3)no2)CC(=O)N1C` [Example 777, (9S,13S,19aS,22R)-22-benzyl-N-(2-(3-cyclopropylisoxazol-5-yl)ethyl)-5-fluoro-13-isobutyl-12-methyl-7,11,14,20-tetraoxo-7,8,9,10,11,12,13,14,17,18,19,19a,20,21,22,23-hexadecahydro-16H-pyrido[2′,1′:6,7][1]oxa[4,7,10,14]tetraazacycloheptadecino[16,17-f]quinoline-9-carboxamide], the pEC50 is 6.06 and the Emax was determined as 216%.

For `CC(C)C[C@H]1C(=O)N2CCCC[C@@H]2C(=O)N[C@H](Cc2ccccc2)COc2ccc3ncc(F)cc3c2C(=O)N[C@H](C(=O)NCCn2ncc(C3CC3)n2)CC(=O)N1C` [Example 778, (9S,13S,19aR,22R)-22-benzyl-N-(2-(4-cyclopropyl-2H-1,2,3-triazol-2-yl)ethyl)-5-fluoro-13-isobutyl-12-methyl-7,11,14,20-tetraoxo-7,8,9,10,11,12,13,14,17,18,19,19a,20,21,22,23-hexadecahydro-16H-pyrido[2′,11:6,7][1]oxa[4,7,10,14]tetraazacycloheptadecino[16,17-f]quinoline-9-carboxamide], the pEC50 was 6.85 and the Emax turned out to be 302%.

On to `CC(C)C[C@H]1C(=O)N2CCCC[C@H]2C(=O)N[C@H](Cc2ccccc2)COc2ccc3ncc(F)cc3c2C(=O)N[C@H](C(=O)NCCn2ncc(C3CC3)n2)CC(=O)N1C` [Example 779, (9S,13S,19aS,22R)-22-benzyl-N-(2-(4-cyclopropyl-2H-1,2,3-triazol-2-yl)ethyl)-5-fluoro-13-isobutyl-12-methyl-7,11,14,20-tetraoxo-7,8,9,10,11,12,13,14,17,18,19,19a,20,21,22,23-hexadecahydro-16H-pyrido[2′,11:6,7][1]oxa[4,7,10,14]tetraazacycloheptadecino[16,17-f]quinoline-9-carboxamide], for which the negative logarithm of the EC50 (pEC50) is 6.09 and the Emax is 213%.

Consider `CC(C)C[C@H]1C(=O)N2CCCC[C@@H]2C(=O)N[C@H](Cc2ccccc2)COc2ccc3ncc(F)cc3c2C(=O)N[C@H](C(=O)NCCc2nc(C3CC3)no2)CC(=O)N1C` [Example 780, (9S,13S,19aR,22R)-22-benzyl-N-(2-(3-cyclopropyl-1,2,4-oxadiazol-5-yl)ethyl)-5-fluoro-13-isobutyl-12-methyl-7,11,14,20-tetraoxo-7,8,9,10,11,12,13,14,17,18,19,19a,20,21,22,23-hexadecahydro-16H-pyrido[2′,1′:6,7][1]oxa[4,7,10,14]tetraazacycloheptadecino[16,17-f]quinoline-9-carboxamide], for which the negative-log EC50 (pEC50) is 6.94 and the Emax turned out to be 280%.

Turning to `CC(C)C[C@H]1C(=O)N2CCCC[C@@H]2C(=O)N[C@H](Cc2ccccc2)COc2ccc3ncc(F)cc3c2C(=O)N[C@H](C(=O)NCCc2cc(C3CC3)on2)CC(=O)N1C` [Example 781, (9S,13S,19aR,22R)-22-benzyl-N-(2-(5-cyclopropylisoxazol-3-yl)ethyl)-5-fluoro-13-isobutyl-12-methyl-7,11,14,20-tetraoxo-7,8,9,10,11,12,13,14,17,18,19,19a,20,21,22,23-hexadecahydro-16H-pyrido[2′,1′:6,7][1]oxa[4,7,10,14]tetraazacycloheptadecino[16,17-f]quinoline-9-carboxamide], the pEC50 is 6.91 and the maximal effect (Emax) was 296%.

As for `COc1cccc2c1C(=O)N[C@H](C(=O)NCCc1noc(C3CC3)n1)CC(=O)N(C)[C@@H](CC(C)C)C(=O)N(C)[C@H](Cc1nc(-c3ccc(F)cn3)no1)C(=O)N[C@H](Cc1ccccc1)CO2` [Example 782, (3R,6R,9S,13S)-3-benzyl-N-(2-(5-cyclopropyl-1,2,4-oxadiazol-3-yl)ethyl)-6-((3-(5-fluoropyridin-2-yl)-1,2,4-oxadiazol-5-yl)methyl)-9-isobutyl-16-methoxy-7,10-dimethyl-5,8,11,15-tetraoxo-2,3,4,5,6,7,8,9,10,11,12,13,14,15-tetradecahydropyrido[3,4-p][1]oxa[4,7,10,14]tetraazacycloheptadecine-13-carboxamide], the pEC50 was 6.07 and the maximum response (Emax) came out at 439%.

Consider `COc1cc(CCNC(=O)[C@@H]2CC(=O)N(C)[C@@H](CC(C)C)C(=O)N(C)[C@H](Cc3nc(-c4ccc(F)cn4)no3)C(=O)N[C@H](Cc3ccccc3)COc3ccnc(OC)c3C(=O)N2)on1` [Example 783, (3R,6R,9S,13S)-3-benzyl-6-((3-(5-fluoropyridin-2-yl)-1,2,4-oxadiazol-5-yl)methyl)-9-isobutyl-16-methoxy-N-(2-(3-methoxyisoxazol-5-yl)ethyl)-7,10-dimethyl-5,8,11,15-tetraoxo-2,3,4,5,6,7,8,9,10,11,12,13,14,15-tetradecahydropyrido[3,4-p][1]oxa[4,7,10,14]tetraazacycloheptadecine-13-carboxamide], for which the pEC50 was 6.05 and the Emax was found to be 410%.

Regarding `CC[C@@H]1C(=O)N[C@H](Cc2ccccc2)COc2cc(C)nc(OC)c2C(=O)N[C@H](C(=O)NCCc2cc(OC)no2)CC(=O)N(C)[C@@H](CC(C)C)C(=O)N1C` [Example 784, (3R,6R,9S,13S)-3-benzyl-6-ethyl-9-isobutyl-16-methoxy-N-(2-(3-methoxyisoxazol-5-yl)ethyl)-7,10,18-trimethyl-5,8,11,15-tetraoxo-2,3,4,5,6,7,8,9,10,11,12,13,14,15-tetradecahydropyrido[3,4-p][1]oxa[4,7,10,14]tetraazacycloheptadecine-13-carboxamide], the pEC50 is 6.51 and the Emax was 391%.

Take `COc1cc(CCNC(=O)[C@@H]2CC(=O)N(C)[C@@H](CC(C)C)C(=O)N(C)[C@H](CC(F)F)C(=O)N[C@H](Cc3ccccc3)COc3cc(C)nc(OC)c3C(=O)N2)on1` [Example 785, (3R,6R,9S,13S)-3-benzyl-6-(2,2-difluoroethyl)-9-isobutyl-16-methoxy-N-(2-(3-methoxyisoxazol-5-yl)ethyl)-7,10,18-trimethyl-5,8,11,15-tetraoxo-2,3,4,5,6,7,8,9,10,11,12,13,14,15-tetradecahydropyrido[3,4-p][1]oxa[4,7,10,14]tetraazacycloheptadecine-13-carboxamide]: the pEC50 was 6.68 and the Emax is 365%.

As to `COc1cc(CCNC(=O)[C@@H]2CC(=O)N(C)[C@@H](CC(C)C)C(=O)N(C)[C@H](C)C(=O)N[C@H](Cc3ccccc3)COc3ccc4ncc(F)cc4c3C(=O)N2)on1` [Example 786, (3S,7S,10R,13R)-13-benzyl-20-fluoro-7-isobutyl-N-(2-(3-methoxyisoxazol-5-yl)ethyl)-6,9,10-trimethyl-1,5,8,11-tetraoxo-1,2,3,4,5,6,7,8,9,10,11,12,13,14-tetradecahydro-[1]oxa[4,7,10,14]tetraazacycloheptadecino[16,17-f]quinoline-3-carboxamide], the negative-log EC50 (pEC50) is 6.81 and the Emax was determined as 337%.

For the compound `CC(C)C[C@H]1C(=O)N(C)[C@H](C)C(=O)N[C@H](Cc2ccccc2)COc2ccc3ncc(F)cc3c2C(=O)N[C@H](C(=O)NCCn2ncc(C3CC3)n2)CC(=O)N1C` [Example 787, (3S,7S,10R,13R)-13-benzyl-N-(2-(4-cyclopropyl-2H-1,2,3-triazol-2-yl)ethyl)-20-fluoro-7-isobutyl-6,9,10-trimethyl-1,5,8,11-tetraoxo-1,2,3,4,5,6,7,8,9,10,11,12,13,14-tetradecahydro-[1]oxa[4,7,10,14]tetraazacycloheptadecino[16,17-f]quinoline-3-carboxamide], the pEC50 was 6.72 and the Emax is 323%.

`COc1cccc(CCNC(=O)[C@@H]2CC(=O)N(C)[C@@H](CC(C)C)C(=O)N(C)[C@H](C)C(=O)N[C@H](Cc3ccccc3)COc3ccc4nccn4c3C(=O)N2)c1` [Example 788, (3S,7S,10R,13R)-13-benzyl-7-isobutyl-N-(3-methoxyphenethyl)-6,9,10-trimethyl-1,5,8,11-tetraoxo-1,2,3,4,5,6,7,8,9,10,11,12,13,14-tetradecahydroimidazo[1′,2′:1,6]pyrido[2,3-p][1]oxa[4,7,10,14]tetraazacycloheptadecine-3-carboxamide]: the pEC50 is 6.26 and the Emax is 344%.

As for `COc1cc(CCNC(=O)[C@@H]2CC(=O)N(C)[C@@H](CC(C)C)C(=O)N(C)[C@H](C)C(=O)N[C@H](Cc3ccccc3)COc3ccc4nccn4c3C(=O)N2)on1` [Example 789, (3S,7S,10R,13R)-13-benzyl-7-isobutyl-N-(2-(3-methoxyisoxazol-5-yl)ethyl)-6,9,10-trimethyl-1,5,8,11-tetraoxo-1,2,3,4,5,6,7,8,9,10,11,12,13,14-tetradecahydroimidazo[1′,2′:1,6]pyrido[2,3-p][1]oxa[4,7,10,14]tetraazacycloheptadecine-3-carboxamide], the pEC50 was 6.17 and the Emax amounted to 358%.

In the case of `CC(C)C[C@H]1C(=O)N(C)[C@H](C)C(=O)N[C@H](Cc2ccccc2)COc2ccc3nccn3c2C(=O)N[C@H](C(=O)NCCc2cc(C3CC3)no2)CC(=O)N1C` [Example 790, (3S,7S,10R,13R)-13-benzyl-N-(2-(3-cyclopropylisoxazol-5-yl)ethyl)-7-isobutyl-6,9,10-trimethyl-1,5,8,11-tetraoxo-1,2,3,4,5,6,7,8,9,10,11,12,13,14-tetradecahydroimidazo[1′,2′:1,6]pyrido[2,3-p][1]oxa[4,7,10,14]tetraazacycloheptadecine-3-carboxamide], the pEC50 was 6.19 and the Emax came out at 350%.

Take `COc1cc(CCNC(=O)[C@@H]2CC(=O)N(C)[C@@H](CC(C)C)C(=O)N(C)[C@H](CC(F)(F)F)C(=O)N[C@H](Cc3ccccc3)COc3cc(C)nc(OC)c3C(=O)N2)on1` [Example 791, (3R,6R,9S,13S)-3-benzyl-9-isobutyl-16-methoxy-N-(2-(3-methoxyisoxazol-5-yl)ethyl)-7,10,18-trimethyl-5,8,11,15-tetraoxo-6-(2,2,2-trifluoroethyl)-2,3,4,5,6,7,8,9,10,11,12,13,14,15-tetradecahydropyrido[3,4-p][1]oxa[4,7,10,14]tetraazacycloheptadecine-13-carboxamide]: the pEC50 was 7.10 and the Emax was 345%.

(Values after US20240208992A1, “MACROCYCLES AS CFTR MODULATORS” (Idorsia Pharmaceuticals Ltd, priority 2021, published 2024).)
